According to PMC11754443, “Synthesis, H2S releasing properties, antiviral and antioxidant activities and acute cardiac effects of nucleoside 5′-dithioacetates” (Scientific Reports, 2025):
Where two headings read alike, the source gives them in different places.

Key:
[1] = design: method as in PMID 26809888; conditions: administered at the end of sustained ischemia; cited from earlier work
[2] = test system: perivascular adipose tissue; design: method as in PMID 26120822; conditions: obese rats, through H2S release; cited from earlier work
[3] = DPPH radical scavenging assay; conditions: for IC50: without extract
Protocol: DPPH is a stable free radical with a deep violet color that changes to yellow when neutralized by an electron or hydrogen radical, indicating the antioxidant activity of the sample being tested. The DPPH radical scavenging abilities were investigated following the method outlined by Shimamura et al., with minor adjustments. In this study, a cardiovascular tissue homogenate was used to induce H2S release from the dithioacetate derivatives 22 and 24, as well as GYY4137. A mixed solution of 1.2 mL of methanol and 800 µL of 0.1 M Tris-HCl buffer (pH 7.4) served as the blank. 1 mL DPPH solution was added to a mixture of methanol and 0.1 M Tris-HCl buffer (200:800 µL). After mixing, the absorbance was recorded at 517 nm on a UV-1600 PC VWR spectrophotometer (VWR, China). To avoid any potential interference from the heart extract in the assay, we measured the absorbance after adding different volumes of the extract into the mixture. These measurements were taken both immediately and after 30 min of incubation.
The DPPH antioxidant assay was performed according to the following procedures. 1 mL of DPPH solution was added to a mixture of 200 µL of the methanolic sample solution and 800 µL of 0.1 M Tris-HCl buffer (pH = 7.4). For the groups containing the extract, the extract was introduced into a mixture of the sample solution in PBS buffer, 0.1 M Tris-HCl buffer, and DPPH (200:800:1000 µL). Considering that GYY4137 produces H2S upon hydrolysis, it was introduced last following the addition of the extract into a solution of PBS buffer, 0.1 M Tris-HCl buffer, and DPPH maintained at the same ratio. The same protocol was employed for NaHS without the addition of the extract. After mixing, the absorbance was promptly recorded, after which the solutions were incubated in the dark at room temperature for 30 min before the absorbance was measured again. The test samples were prepared and assayed at varying concentrations using a 2-fold serial dilution method, starting from a concentration of 2 mM. Each investigation was performed in triplicate, and the antioxidant activity was based on the absorbance recorded at 517 nm. Ascorbic acid (AA), GYY4137, and NaHS served as positive controls, while the unmodified nucleosides were used as reference compounds.
The inhibition ratio (IR) was calculated as follows: [drawing 1] where Ac is the absorbance when methanol is added instead of the sample and As is the absorbance when the testing sample solution is added.
The antioxidant capacity was expressed as the concentration needed to achieve a 50% inhibition of the free radical (IC50). The IC50 values were calculated by plotting the percent of inhibition as a function of sample concentration.

[4] = ABTS radical cation decolorization assay; conditions: 0.1 mM, compared with parent dithioacetates 22 and 24
Protocol: The ABTS decolorization assay was carried out as described by Szoke et al.[54] Briefly, the method is based on the scavenging of (2,2′-azinobis-(3-ethylbenzothiazoline-6-sulfonic acid) ABTS^•+ radical cation. The decolorization caused by the compound is compared to the decolorization induced by Trolox (6-hydroxy-2,5,7,8-tetramethylchroman-2-carboxylic acid), and expressed as Trolox equivalent antioxidant capacity (TEAC) value. TEAC values were expressed as Trolox equivalents calculated from (Ai − Af)antioxidant/(Ai − Af) Trolox at 0.1 mM concentrations. Briefly, a total of 10 µL sample, 20 µL of Myoglobin Working Solution, and 150 µL of ABTS Substrate Working Solution were mixed and incubated for 5 min at room temperature. At the end of incubation […] of Stop Solution was added and endpoint absorbance at 405 nm was read. All experiments were performed in triplicates and repeated three times.

[5] = test system: anaesthetized Sprague-Dawley rats; test: Cardiac effects by ECG and echocardiography in anaesthetized rats; assay type: in vivo, rat; conditions: 2 mg/kg i.v.
Protocol: The animals received humane care, and all experimental procedures were carried out in accordance with the “Principles of Laboratory Animal Care” by EU Directive 2010/63/EU. All experimental protocols were approved by the local Ethics Committee of University of Debrecen (25/2023/DEMÁB). Animal experiments are reported in compliance with the ARRIVE guidelines. Anesthesia was carried out using ketamine/xylazine mixture (100/10 mg/kg, i.m.). The chest was shaved and the animal was placed onto a heated pad (VisualSonics SR200, VisualSonics, Amsterdam, The Netherlands). The lateral tail vein was cannulated using a heparinized 26G i.v. cannula (BD Neoflon, BD Medical, NJ, USA). B-mode and M-mode echocardiography was carried out before and 30 s after the intravenous administration of the compounds. A high-resolution ultrasound machine (Vevo 3100 Imaging Station, VisualSonics, Amsterdam, The Netherlands) equipped with a […] transducer (MX201) was used for assessing cardiac parameters. Traces were obtained from the parasternal long axis view (PLAX). A B-mode video and an M-mode trace was recorded, and the following parameters were then offline analysed: left ventricle (LV) end-systolic and end-diastolic volume (LVESV, LVEDV, respectively) fractional shortening (FS) and ejection fraction (EF) and stroke volume (SV).
A 3-channel ECG was continuously recorded during the experiments (Vevo monitor ECG, VisualSonics, Amsterdam, The Netherlands). On the recorded ECG data, RR, PR and QT intervals, and heart rate (HR) were determined before and 30 s after the administration of the drugs, and 6 consecutive cardiac cycles were averaged for each parameter.
Statistical analyses for the in vivo studies were carried out using the GraphPad Prism 9.0 software (GraphPad Software, San Diego, CA, USA). Data distribution was assessed by the Shapiro-Wilk normality test, and paired t-test were used to determine the differences between the baseline (drug free) and endpoint (treated) parameters in each group. A multiple comparison was also carried out between the treatment groups by using one-way ANOVA with Tukey multiple comparison test. Data was shown as mean ± SD, and differences with p < 0.05 were considered significant.

SARS-CoV-2 = assay type: cell-based; conditions: medium of Calu-3 cells infected 2 days at the highest compound concentration, plaque assay in Vero E6 cells
[6] = test system: SARS-CoV-2 (strain hCoV-19/Czech Republic/NRL_6632_2/2020); test: Anti-SARS-CoV-2 cytopathic-effect-based assay in Calu-3 cells (CellTiter-Glo); assay type: cell-based; conditions: Severe acute respiratory syndrome coronavirus 2, compound added 2 h after infection, MOI 0.3, read after two days, read-out: EC50 ± SE, anti-SARS-CoV-2 activity
[7] = Cytotoxicity in Calu-3 cells (CellTiter-Glo); assay type: cell-based, human; conditions: human
Protocol: Cytotoxicity was evaluated by incubating the same two-fold serial dilutions of each compound with Calu-3 cells as above in the absence of the virus. Following two days incubation at 37 °C in 5% CO2, the cell viability was determined as above. The compound concentrations resulting in 50% reduction of cell viability (CC50) were calculated from plots of percentage of luminescence versus log10 drug concentration as above. Remdesivir was used as control in both assays.

[8] = anaesthetized SD rats, 30 s after administration, mean ± SD

NC(=S)c1ccc(OC[C@H]2O[C@@H](n3cnc4c(N)ncnc43)[C@H](O)[C@@H]2O)cc1 [Compound 1]
effect on infarct size [1]: significantly reduced infarct size

Nc1ncnc2c1ncn2[C@@H]1O[C@H](COP(O)(O)=S)[C@@H](O)[C@H]1O [Compound 2]
effect on anti-contractile effects of perivascular adipose tissue [2]: restore the anti-contractile effects of perivascular adipose tissue in obese rats

Nc1nc2c(ncn2[C@@H]2O[C@H](COP(O)(O)=S)[C@@H](O)[C@H]2O)c(=O)[nH]1 [Compound 3]
effect on anti-contractile effects of perivascular adipose tissue [2]: restore the anti-contractile effects of perivascular adipose tissue in obese rats

Nc1ncnc2c1ncn2[C@@H]1O[C@H](CS)[C@@H](O)[C@H]1O [Compound 34, 5′-Deoxy-5′-thioadenosine]
DPPH inhibition ratio after 30 min incubation ([3]; 2 mM, after 30 min incubation): 90% | DPPH inhibition ratio immediately ([3]; 2 mM, immediately): 70–80% | IC50 ([3]; after 30 min incubation, read-out: DPPH IC50 30 min): 580 µM | DPPH activity lower than that of ascorbic acid ([3]; from IC50 values, relative to ascorbic acid): 10 times | IC50 ([3]; measured immediately, read-out: DPPH IC50 immediately): 720 µM | ABTS antioxidant activity (Trolox equivalents), in words [4]: higher antioxidant activity than the parent dithioacetate derivatives | Ejection Fraction [5, 8]: 82.14±5.877% | Heart rate [5, 8]: 97.25±24.66 bpm | PR interval [5, 8]: 49.43 ± 6.973 ms | QT interval [5, 8]: 158.3 ± 35.8 ms | Stroke Volume [5, 8]: 335.6 ± 68.82 µL | duration of negative chronotropic action compared with adenosine ([5]; anaesthetized rats): their duration of action was longer | heart block (in words) ([5]; anaesthetized rats): None of the new compounds (22, 24, and 34) induced complete heart block or pauses

CCC(CC)COC(=O)[C@H](C)N[P@](=O)(OC[C@H]1O[C@@](C#N)(c2ccc3c(N)ncnn23)[C@H](O)[C@@H]1O)Oc1ccccc1 [Remdesivir, reference compound]
SARS-CoV-2 titer reduction (SARS-CoV-2): 7.1 log10 PFU/mL | EC50 [6]: 0.5 ± 0.26 µM | CC50 at 2 days [7]: > 10 µM
